# Target: T1, Kv7.2/7.3 (Homo sapiens, UniProt O43525+O43526)
# T1 construct: Kv7.2 tetracycline-induced, Kv7.3 constitutive
# Experiment: Kv7.2/7.3 Activation Assay (Thallium Flux Assay)
# Format: cell-based
# Conditions: hKV7.2/7.3 cell line; test compound at single concentration of 10 μM; fluorescence at 90 sec normalized to positive control (retigabine, 30 μM)
# In short: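 Single-point activity at 10 μM (0.1% DMSO, HEPES-buffered saline, pH 7.4) was scored from fluorescence at 90 s relative to 30 μM retigabine. Categories were none <0.15, moderate 0.15-0.7 and high >0.7. Thallium influx after stimulus addition was followed with FluxOR II Green dye in hKv7.2/7.3 cells, Kv7.2 expressed under overnight tetracycline (10 ng/mL) induction.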
row,SMILES,Kv7.2/7.3 Activity
1,"Cn1nc(NC(=O)COC(C)(C)C)c(C2CCC2)c1-c1ccc(F)cc1 [Compound 108, 2-(tert-butoxy)-N-(4-cyclobutyl-5-(4-fluorophenyl)-1-methyl-1H-pyrazol-3-yl)acetamide]",+ (“+” Moderate Activity 0.15-0.7)
2,"Cn1nc(NC(=O)CC(C(F)(F)F)C(F)(F)F)c(C2CCC2)c1-c1ccc(F)cc1 [Compound 109, N-(4-cyclobutyl-5-(4-fluorophenyl)-1-methyl-1H-pyrazol-3-yl)-4,4,4-trifluoro-3-(trifluoromethyl)butanamide]",++ (“++” High Activity ≥ 0.7)
3,"Cn1nc(NC(=O)[C@H]2CC2(C)C)c(C2CCC2)c1-c1ccc(F)cc1 [Compound 110, (S)-N-(4-cyclobutyl-5-(4-fluorophenyl)-1-methyl-1H-pyrazol-3-yl)-2,2-dimethylcyclopropane-1-carboxamide]",++ (“++” High Activity ≥ 0.7)
4,"Cn1nc(NC(=O)[C@H]2C[C@]2(C)C(F)F)c(C2CCC2)c1-c1ccc(F)cc1 [Compound 111, (1S,2S)-N-(4-cyclobutyl-5-(4-fluorophenyl)-1-methyl-1H-pyrazol-3-yl)-2-(difluoromethyl)-2-methylcyclopropane-1-carboxamide]",++ (“++” High Activity ≥ 0.7)
5,"Cn1nc(NC(=O)[C@H]2C[C@@]2(C)C(F)F)c(C2CCC2)c1-c1ccc(F)cc1 [Compound 112, (1S,2R)-N-(4-cyclobutyl-5-(4-fluorophenyl)-1-methyl-1H-pyrazol-3-yl)-2-(difluoromethyl)-2-methylcyclopropane-1-carboxamide]",++ (“++” High Activity ≥ 0.7)
6,"C[C@H](C(=O)Nc1nn(C)c(-c2ccc(F)cc2)c1C1CCC1)C(C)(C)C [Compound 113, (S)-N-(4-cyclobutyl-5-(4-fluorophenyl)-1-methyl-1H-pyrazol-3-yl)-2,3,3-trimethylbutanamide]",++ (“++” High Activity ≥ 0.7)
7,"C[C@@H](C(=O)Nc1nn(C)c(-c2ccc(F)cc2)c1C1CCC1)C(C)(C)C [Compound 114, (R)-N-(4-cyclobutyl-5-(4-fluorophenyl)-1-methyl-1H-pyrazol-3-yl)-2,3,3-trimethylbutanamide]",++ (“++” High Activity ≥ 0.7)
8,"Cn1nc(NC(=O)C[C@H](O)C(C)(C)C)c(C2CCC2)c1-c1ccc(F)cc1 [Compound 115, (S)-N-(4-cyclobutyl-5-(4-fluorophenyl)-1-methyl-1H-pyrazol-3-yl)-3-hydroxy-4,4-dimethylpentanamide]",+ (“+” Moderate Activity 0.15-0.7)
9,"Cn1nc(NC(=O)C[C@](C)(O)C2CC(F)(F)C2)c(C2CCC2)c1-c1ccc(F)cc1 [Compound 116, (S)-N-(4-cyclobutyl-5-(4-fluorophenyl)-1-methyl-1H-pyrazol-3-yl)-3-(3,3-difluorocyclobutyl)-3-hydroxybutanamide]",+ (“+” Moderate Activity 0.15-0.7)
10,"Cn1nc(NC(=O)C(F)(F)C(C)(O)c2ccccc2)c(C2CCC2)c1-c1ccc(F)cc1 (stereo not shown) [Compound 117, N-(4-cyclobutyl-5-(4-fluorophenyl)-1-methyl-1H-pyrazol-3-yl)-2,2-difluoro-3-hydroxy-3-phenylbutanamide]",++ (“++” High Activity ≥ 0.7)
11,"Cn1nc(NC(=O)[C@H]2C[C@@H](C(F)(F)F)C2)c(C2CCC2)c1-c1ccc(F)cc1 [Compound 118, (1S,3S)-N-(4-cyclobutyl-5-(4-fluorophenyl)-1-methyl-1H-pyrazol-3-yl)-3-(trifluoromethyl)cyclobutane-1-carboxamide]",++ (“++” High Activity ≥ 0.7)
12,"Cn1nc(NC(=O)[C@H]2C[C@H](C(F)(F)F)C2)c(C2CCC2)c1-c1ccc(F)cc1 [Compound 119, (1R,3R)-N-(4-cyclobutyl-5-(4-fluorophenyl)-1-methyl-1H-pyrazol-3-yl)-3-(trifluoromethyl)cyclobutane-1-carboxamide]",++ (“++” High Activity ≥ 0.7)
13,"Cn1nc(NC(=O)[C@@H]2CCC(F)(F)C2)c(C2CCC2)c1-c1ccc(F)cc1 [Compound 120, (R)-N-(4-cyclobutyl-5-(4-fluorophenyl)-1-methyl-1H-pyrazol-3-yl)-3,3-difluorocyclopentane-1-carboxamide]",++ (“++” High Activity ≥ 0.7)
14,"Cn1nc(NC(=O)C2CC(C)(C)C2)c(C2CCC2)c1-c1ccc(F)cc1 [Compound 121, N-(4-cyclobutyl-5-(4-fluorophenyl)-1-methyl-1H-pyrazol-3-yl)-3,3-dimethylcyclobutane-1-carboxamide]",++ (“++” High Activity ≥ 0.7)
15,"Cn1nc(NC(=O)[C@H]2C[C@@H](C)C2)c(C2CCC2)c1-c1ccc(F)cc1 [Compound 122, (1S,3S)-N-(4-cyclobutyl-5-(4-fluorophenyl)-1-methyl-1H-pyrazol-3-yl)-3-methylcyclobutane-1-carboxamide]",++ (“++” High Activity ≥ 0.7)
16,"Cn1nc(NC(=O)[C@H]2C[C@H](C)C2)c(C2CCC2)c1-c1ccc(F)cc1 [Compound 123, (1R,3R)-N-(4-cyclobutyl-5-(4-fluorophenyl)-1-methyl-1H-pyrazol-3-yl)-3-methylcyclobutane-1-carboxamide]",++ (“++” High Activity ≥ 0.7)

row,SMILES,Kv7.2/7.3 Activity
1,"Cn1nc(NC(=O)C2(C(F)(F)F)CCC2)c(C2CCC2)c1-c1ccc(F)cc1 [Compound 124, N-(4-cyclobutyl-5-(4-fluorophenyl)-1-methyl-1H-pyrazol-3-yl)-1-(trifluoromethyl)cyclobutane-1-carboxamide]",+ (“+” Moderate Activity 0.15-0.7)
2,"Cn1nc(NC(=O)C2CC(F)(F)C2)c(C2CCC2)c1-c1ccc(F)cc1 [Compound 125, N-(4-cyclobutyl-5-(4-fluorophenyl)-1-methyl-1H-pyrazol-3-yl)-3,3-difluorocyclobutane-1-carboxamide]",++ (“++” High Activity ≥ 0.7)
3,"Cn1nc(NC(=O)C2(C(F)(F)F)CC2)c(C2CCC2)c1-c1ccc(F)cc1 [Compound 126, N-(4-cyclobutyl-5-(4-fluorophenyl)-1-methyl-1H-pyrazol-3-yl)-1-(trifluoromethyl)cyclopropane-1-carboxamide]",++ (“++” High Activity ≥ 0.7)
4,"C[C@H](C(=O)Nc1nn(C)c(-c2ccc(F)cc2)c1C1CCC1)C1(C(F)(F)F)CC1 [Compound 127, (S)-N-(4-cyclobutyl-5-(4-fluorophenyl)-1-methyl-1H-pyrazol-3-yl)-2-(1-(trifluoromethyl)cyclopropyl)propanamide]",++ (“++” High Activity ≥ 0.7)
5,"C[C@@H](C(=O)Nc1nn(C)c(-c2ccc(F)cc2)c1C1CCC1)C1(C(F)(F)F)CC1 [Compound 128, (R)-N-(4-cyclobutyl-5-(4-fluorophenyl)-1-methyl-1H-pyrazol-3-yl)-2-(1-(trifluoromethyl)cyclopropyl)propanamide]",++ (“++” High Activity ≥ 0.7)
6,"C[C@H](C(=O)Nc1nn(C)c(-c2ccc(F)cc2)c1C1CCC1)C1CC(F)(F)C1 [Compound 129, (S)-N-(4-cyclobutyl-5-(4-fluorophenyl)-1-methyl-1H-pyrazol-3-yl)-2-(3,3-difluorocyclobutyl)propanamide]",++ (“++” High Activity ≥ 0.7)
7,"Cn1nc(NC(=O)C2(O)CC2)c(C2CCC2)c1-c1ccc(F)cc1 [Compound 130, N-(4-cyclobutyl-5-(4-fluorophenyl)-1-methyl-1H-pyrazol-3-yl)-1-hydroxycyclopropane-1-carboxamide]",− (“−” No Activity < 0.15)
8,"Cn1nc(NC(=O)C2(C(C)(F)F)CC2)c(C2CCC2)c1-c1ccc(F)cc1 [Compound 131, N-(4-cyclobutyl-5-(4-fluorophenyl)-1-methyl-1H-pyrazol-3-yl)-1-(1,1-difluoroethyl)cyclopropane-1-carboxamide]",++ (“++” High Activity ≥ 0.7)
9,"C[C@@H](C(=O)Nc1nn(C)c(-c2ccc(F)cc2)c1C1CCC1)C1CC(F)(F)C1 [Compound 132, (R)-N-(4-cyclobutyl-5-(4-fluorophenyl)-1-methyl-1H-pyrazol-3-yl)-2-(3,3-difluorocyclobutyl)propanamide]",+ (“+” Moderate Activity 0.15-0.7)
10,"Cn1nc(NC(=O)[C@H]2CC2(F)F)c(C2CCC2)c1-c1ccc(F)cc1 [Compound 133, (R)-N-(4-cyclobutyl-5-(4-fluorophenyl)-1-methyl-1H-pyrazol-3-yl)-2,2-difluorocyclopropane-1-carboxamide]",++ (“++” High Activity ≥ 0.7)
11,"Cn1nc(NC(=O)[C@@H]2CC2(F)F)c(C2CCC2)c1-c1ccc(F)cc1 [Compound 134, (S)-N-(4-cyclobutyl-5-(4-fluorophenyl)-1-methyl-1H-pyrazol-3-yl)-2,2-difluorocyclopropane-1-carboxamide]",− (“−” No Activity < 0.15)
12,"CC(C)C1(C(=O)Nc2nn(C)c(-c3ccc(F)cc3)c2C2CCC2)CC1 [Compound 136, N-(4-cyclobutyl-5-(4-fluorophenyl)-1-methyl-1H-pyrazol-3-yl)-1-isopropylcyclopropane-1-carboxamide]",++ (“++” High Activity ≥ 0.7)
13,"Cn1nc(NC(=O)C2(C3CC3)CC2)c(C2CCC2)c1-c1ccc(F)cc1 [Compound 137, N-(4-cyclobutyl-5-(4-fluorophenyl)-1-methyl-1H-pyrazol-3-yl)-[1,1'-bi(cyclopropane)]-1-carboxamide]",++ (“++” High Activity ≥ 0.7)
14,"CC(C)CC1(C(=O)Nc2nn(C)c(-c3ccc(F)cc3)c2C2CCC2)CC1 [Compound 138, N-(4-cyclobutyl-5-(4-fluorophenyl)-1-methyl-1H-pyrazol-3-yl)-1-isobutylcyclopropane-1-carboxamide]",++ (“++” High Activity ≥ 0.7)
15,"Cn1nc(NC(=O)[C@H]2CC2(F)F)c(C2(C)CCC2)c1-c1ccc(F)cc1 [Compound 139, (R)-2,2-difluoro-N-(5-(4-fluorophenyl)-1-methyl-4-(1-methylcyclobutyl)-1H-pyrazol-3-yl)cyclopropane-1-carboxamide]",++ (“++” High Activity ≥ 0.7)

# From patent US20250171430A1, “PYRAZOLYL COMPOUNDS AS KV7 CHANNEL ACTIVATORS” (Biohaven Therapeutics Ltd., priority 2022, published 2025)
